How the values were obtained:
rat A1 AR = target: T1, rat A1 AR (Rattus norvegicus, UniProt P25099); test: Radioligand binding assay at rat A1 AR (rat brain cortex) vs. [^3H]CCPA; conditions: rat (r); for Ki: rat brain cortex, n = 3; for inhibition at 1.5 µM: read-out: % inhibition of radioligand binding at indicated concentration, A1 vs. [^3H]CCPA, at 1,500 nM
T1 construct: A1 ARs of rat brain cortical membrane; from tissue; host or cells: rat brain cortex membranes
T1 sequence (P25099 1-326): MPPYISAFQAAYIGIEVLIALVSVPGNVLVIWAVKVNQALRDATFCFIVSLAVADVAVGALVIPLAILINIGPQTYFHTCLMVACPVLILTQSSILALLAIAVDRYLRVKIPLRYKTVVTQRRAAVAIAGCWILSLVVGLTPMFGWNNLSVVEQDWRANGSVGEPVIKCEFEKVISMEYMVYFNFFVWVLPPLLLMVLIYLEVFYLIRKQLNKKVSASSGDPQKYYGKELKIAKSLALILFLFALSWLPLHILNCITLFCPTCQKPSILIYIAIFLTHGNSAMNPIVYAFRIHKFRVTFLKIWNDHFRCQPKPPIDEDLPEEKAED
Procedure: (§1) Membrane preparations and radioligand binding assays at rat A1 (rat brain cortex) and rat A2A ARs (rat brain striatum) were performed as previously described (Ozola et al., [2003]; Alnouri et al., [2015]). For assays at human A1, A2A, A2B, and A3 ARs, CHO cell membranes expressing one of the human AR subtypes were used as previously reported (Klotz et al., [1998]; Alnouri et al., [2015]; De Filippo et al., [2016]).
(§2) The synthesized tetrahydropyrazino[2,1-f ]purinediones 13–20 were evaluated in radioligand binding assays for their affinity to A1 ARs of rat brain cortical membrane and to A2A ARs of rat brain striatal membrane preparations. Selected compounds were further investigated for their affinity to human A1 and A2A ARs recombinantly expressed in Chinese hamster ovary (CHO) cells. All compounds were additionally investigated for their affinity to human A2B and A3 ARs recombinantly expressed in CHO cells to determine their AR subtype selectivity. […] It is well known that all xanthine derivatives lacking a ribose moiety, including tricyclic compounds, can only block ARs, but never act as AR agonists; therefore, additional functional studies were not required. […] Potent MAO-B inhibitors were additionally investigated for inhibition of human MAO-A to assess their selectivity. Results are presented in Tables 1–6, and data of standard ligands are included for comparison.

rat A2A AR = target: T2, rat A2A AR (Rattus norvegicus, UniProt P30543); test: Radioligand binding assay at rat A2A AR (rat brain striatum) vs. [^3H]MSX-2; conditions: rat (r); for % inhibition of radioligand binding at indicated concentration, A2A vs. [^3H]MSX-2: at 1,000 nM; for Ki: rat brain striatum, n = 3, read-out: Ki ± SEM, A2A vs. [^3H]MSX-2
T2 construct: A2A ARs of rat brain striatal membrane preparations; from tissue; host or cells: rat brain striatum membranes
Procedure: as §1, §2

human A2B AR = target: T3, human A2B AR (Homo sapiens, UniProt P29275); test: Radioligand binding assay at human A2B AR vs. [^3H]PSB-603; conditions: for Ki: CHO cell membranes, n = 2 (n = 3 where marked a), read-out: Ki ± SEM, A2B vs. [^3H]PSB-603; for inhibition at 1 µM: at 1,000 nM
T3 construct: expressed in transfected cells; host or cells: CHO cells
T3 sequence (P29275 1-332): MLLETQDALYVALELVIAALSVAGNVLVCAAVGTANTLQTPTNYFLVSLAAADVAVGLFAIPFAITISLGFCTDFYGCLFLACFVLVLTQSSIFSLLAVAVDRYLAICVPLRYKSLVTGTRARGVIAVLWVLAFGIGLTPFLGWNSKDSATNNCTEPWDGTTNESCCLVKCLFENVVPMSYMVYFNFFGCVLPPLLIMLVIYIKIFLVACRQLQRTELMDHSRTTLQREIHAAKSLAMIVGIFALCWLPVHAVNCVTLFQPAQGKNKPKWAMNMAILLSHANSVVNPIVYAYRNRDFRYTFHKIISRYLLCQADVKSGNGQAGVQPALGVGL
Procedure: as §1, §2

human A3 AR = target: T4, human A3 AR (Homo sapiens, UniProt P0DMS8); test: Radioligand binding assay at human A3 AR vs. [^3H]PSB-11; conditions: for Ki: CHO cell membranes, n = 2 (n = 3 where marked a), read-out: Ki ± SEM, A3 vs. [^3H]PSB-11; for inhibition at 10 µM: at 10,000 nM, read-out: % inhibition of radioligand binding at indicated concentration, A3 vs. [^3H]PSB-11
T4 construct: expressed in transfected cells; host or cells: CHO cells
T4 sequence (P0DMS8 1-318): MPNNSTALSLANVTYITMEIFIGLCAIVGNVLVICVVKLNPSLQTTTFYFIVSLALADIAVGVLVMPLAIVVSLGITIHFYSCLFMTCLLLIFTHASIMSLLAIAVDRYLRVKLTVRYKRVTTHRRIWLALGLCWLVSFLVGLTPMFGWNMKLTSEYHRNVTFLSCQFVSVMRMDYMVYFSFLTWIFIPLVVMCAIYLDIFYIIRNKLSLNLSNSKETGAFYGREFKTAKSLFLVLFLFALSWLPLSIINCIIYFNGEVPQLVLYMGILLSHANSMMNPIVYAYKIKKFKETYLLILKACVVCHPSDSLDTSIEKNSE
Procedure: as §1, §2

recombinant human MAO-B = target: T5, recombinant human MAO-B (Homo sapiens, UniProt P27338); test: Monoamine oxidase assay (Amplex Red), MAO-B; type: biochemical; conditions: for inhibition at 10 µM: at 10,000 nM (10 μM), read-out: % inhibition at indicated concentration, Human MAO-B; for IC50: n = 3, read-out: IC50 ± SEM, Human MAO-B
T5 construct: purchased Sigma-Aldrich M7441; host or cells: baculovirus-infected insect cells
T5 sequence (P27338 1-520): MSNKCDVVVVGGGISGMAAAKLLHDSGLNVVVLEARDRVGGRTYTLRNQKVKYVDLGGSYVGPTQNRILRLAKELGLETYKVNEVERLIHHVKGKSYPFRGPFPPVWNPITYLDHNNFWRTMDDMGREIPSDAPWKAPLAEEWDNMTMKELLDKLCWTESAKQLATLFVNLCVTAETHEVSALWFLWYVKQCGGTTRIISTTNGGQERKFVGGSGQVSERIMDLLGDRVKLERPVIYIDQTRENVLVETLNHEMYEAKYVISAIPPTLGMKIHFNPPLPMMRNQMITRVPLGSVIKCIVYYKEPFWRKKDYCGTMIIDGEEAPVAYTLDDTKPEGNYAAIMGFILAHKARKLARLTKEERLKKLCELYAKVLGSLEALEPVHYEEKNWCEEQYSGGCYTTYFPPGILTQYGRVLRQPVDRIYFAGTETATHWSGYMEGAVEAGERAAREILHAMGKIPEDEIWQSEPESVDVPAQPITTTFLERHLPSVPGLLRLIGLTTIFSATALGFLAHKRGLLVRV
Procedure: The determination of MAO-A and MAO-B inhibition was performed using commercially available recombinant human MAO-A and MAO-B enzymes expressed in baculovirus-infected insects sells (Sigma-Aldrich, M7316 and M7441) applying the commercially available Amplex® Red monoamine oxidase assay kit (Invitrogen A12214). The assays were performed as previously described. The determination of rat MAO-B inhibition was performed using mitochondrial-enriched fractions from male Sprague Dawley rat livers. […]

[1] = read-out: % inhibition of radioligand binding at indicated concentration, A2B vs. [^3H]PSB-603

T2 sequence (P30543 whole entry): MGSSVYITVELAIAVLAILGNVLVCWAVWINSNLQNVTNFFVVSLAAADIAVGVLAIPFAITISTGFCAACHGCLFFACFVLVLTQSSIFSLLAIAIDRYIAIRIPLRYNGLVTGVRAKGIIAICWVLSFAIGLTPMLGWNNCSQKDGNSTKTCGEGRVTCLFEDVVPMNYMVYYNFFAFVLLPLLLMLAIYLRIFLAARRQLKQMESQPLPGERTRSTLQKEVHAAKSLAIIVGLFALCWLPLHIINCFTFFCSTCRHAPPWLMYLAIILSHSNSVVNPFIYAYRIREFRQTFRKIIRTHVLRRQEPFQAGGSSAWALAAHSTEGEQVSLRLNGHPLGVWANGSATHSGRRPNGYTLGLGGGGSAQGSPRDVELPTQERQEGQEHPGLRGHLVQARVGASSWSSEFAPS

Compound | Ki (rat A1 AR) [nM] | inhibition at 1.5 µM (rat A1 AR) [%] | % inhibition of radioligand binding at indicated concentration, A2A vs. [^3H]MSX-2 (rat A2A AR) [%] | Ki (rat A2A AR) [nM] | Ki (human A2B AR) [nM] | inhibition at 1 µM (human A2B AR; [1]) [%] | Ki (human A3 AR) [nM] | inhibition at 10 µM (human A3 AR) [%] | inhibition at 10 µM (recombinant human MAO-B) [%] | IC50 (recombinant human MAO-B) [nM] | inhibition at 0.1 µM (human A2B AR; at 100 nM, read-out: % inhibition of radioligand binding at indicated concentration, A2B vs. [^3H]PSB-603) [%] | inhibition at 0.3 µM (human A2B AR; at 300 nM, read-out: % inhibition of radioligand binding at indicated concentration, A2B vs. [^3H]PSB-603) [%]
Cn1c(=O)[nH]c(=O)c2c1nc1n2CCN(CCc2cccc(Cl)c2)C1 [Compound 13c, 8-(3-chlorophenethyl)-1-methyl-6,7,8,9-tetrahydropyrazino[2,1-f]purine-2,4(1H,3H)-dione] | > 1500 | 3 | 1 | > 1000 | > 1000 | 18 | > 10000 | 49 | 54 | ~10000 | – | –
CCn1c(=O)c2c(nc3n2CCN(Cc2ccc(Cl)cc2C(F)(F)F)C3)n(CC)c1=O [Compound 15o, 8-(4-chloro-2-(trifluoromethyl)benzyl)-1,3-diethyl-6,7,8,9-tetrahydropyrazino[2,1-f]purine-2,4(1H,3H)-dione] | > 1500 | 41 | 19 | > 1000 | > 1000 | 16 | 1690 | – | 5 | > 10000 | – | –
Cn1c(=O)[nH]c(=O)c2c1nc1n2CCN(CCc2cccc(Br)c2)C1 [Compound 13d, 8-(3-bromophenethyl)-1-methyl-6,7,8,9-tetrahydropyrazino[2,1-f]purine-2,4(1H,3H)-dione] | > 1500 | 1 | 15 | > 1000 | > 1000 | 1 | ~10000 | 45 | – | – | – | –
CCn1c(=O)c2c(nc3n2CCN(Cc2cc(C(F)(F)F)cc(C(F)(F)F)c2)C3)n(CC)c1=O [Compound 15q, 8-(3,5-bis(trifluoromethyl)benzyl)-1,3-diethyl-6,7,8,9-tetrahydropyrazino[2,1-f]purine-2,4(1H,3H)-dione] | > 1500 | 6 | 13 | > 1000 | > 1000 | 7 | > 10000 | 40 | 27 | > 10000 | – | –
CCn1c(=O)c2c(nc3n2CCN(Cc2ccc(C(F)(F)F)cc2)C3)n(C)c1=O [Compound 14f, 3-ethyl-1-methyl-8-(4-(trifluoromethyl)benzyl)-6,7,8,9-tetrahydropyrazino[2,1-f]purine-2,4(1H,3H)-dione] | > 1500 | 9 | 7 | > 1000 | > 100 | – | 18600 | – | 32 | > 10000 | 1 | –
Cn1c(=O)[nH]c(=O)c2c1nc1n2CCN(Cc2cccc(C(F)(F)F)c2)C1 [Compound 13b, 1-methyl-8-(3-(trifluoromethyl)benzyl)-6,7,8,9-tetrahydropyrazino[2,1-f]purine-2,4(1H,3H)-dione] | > 1500 | -1 | 5 | > 1000 | > 1000 | 2 | > 10000 | 35 | 14 | > 10000 | – | –
Cn1c(=O)[nH]c(=O)c2c1nc1n2CCN(CCc2cccc(C(F)(F)F)c2)C1 [Compound 13e, 1-methyl-8-(3-(trifluoromethyl)phenethyl)-6,7,8,9-tetrahydropyrazino[2,1-f]purine-2,4(1H,3H)-dione] | > 1500 | 9 | 4 | > 1000 | > 300 | – | > 10000 | 39 | 47 | ~10000 | – | 8

The remaining lines, values ahead:

Ki (rat A1 AR) [nM] | inhibition at 1.5 µM (rat A1 AR) [%] | % inhibition of radioligand binding at indicated concentration, A2A vs. [^3H]MSX-2 (rat A2A AR) [%] | Ki (rat A2A AR) [nM] | Ki (human A2B AR) [nM] | inhibition at 1 µM (human A2B AR; [1]) [%] | Ki (human A3 AR) [nM] | inhibition at 10 µM (human A3 AR) [%] | inhibition at 10 µM (recombinant human MAO-B) [%] | IC50 (recombinant human MAO-B) [nM] | inhibition at 0.1 µM (human A2B AR; at 100 nM, read-out: % inhibition of radioligand binding at indicated concentration, A2B vs. [^3H]PSB-603) [%] | inhibition at 0.3 µM (human A2B AR; at 300 nM, read-out: % inhibition of radioligand binding at indicated concentration, A2B vs. [^3H]PSB-603) [%] | Compound
1670 | – | – | 1580 | > 1000 | 8 | 3640 | – | 13 | > 10000 | – | – | C#CCn1c(=O)c2c(nc3n2CCN(c2ccc(OC)c(OC)c2)C3)n(CC)c1=O [Compound 20d, 8-(3,4-dimethoxyphenyl)-1-ethyl-3-propargyl-6,7,8,9-tetrahydropyrazino[2,1-f]purine-2,4(1H,3H)-dione]
1600 | – | – | 2700 | > 1000 | 10 | > 10000 | 22 | 25 | > 10000 | – | – | C#CCn1c(=O)c2c(nc3n2CCN(CCc2ccc(OC)cc2)C3)n(CC)c1=O [Compound 20k, 1-ethyl-8-(4-methoxyphenethyl)-3-propargyl-6,7,8,9-tetrahydropyrazino[2,1-f]purine-2,4(1H,3H)-dione]
3800 | – | – | 7400 | > 1000 | 9 | > 10000 | 12 | 3 | > 10000 | – | – | C#CCn1c(=O)c2c(nc3n2CCN(CCc2ccc(OC)c(OC)c2)C3)n(CC)c1=O [Compound 20l]
1140 | – | – | 1380 | > 1000 | 8 | 4270 | – | 29 | > 10000 | – | – | C#CCn1c(=O)c2c(nc3n2CCN(c2ccccc2F)C3)n(CC)c1=O [Compound 20a, 1-ethyl-8-(2-fluorophenyl)-3-propargyl-6,7,8,9-tetrahydropyrazino[2,1-f]purine-2,4(1H,3H)-dione]

Source: article PMC6028563, “Probing Substituents in the 1- and 3-Position: Tetrahydropyrazino-Annelated Water-Soluble Xanthine Derivatives as Multi-Target Drugs With Potent Adenosine Receptor Antagonistic Activity” (Frontiers in Chemistry, 2018)
